Experiments:
PI3Kγ = biological target: T1, PI3Kγ (Homo sapiens, UniProt P48736); assay: ADP-Glo lipid kinase assay, PI3Kγ kinase activity; format: biochemical; settings: 0.4 nM enzyme, 120 min, 50 μM ATP
T1 construct: purchased Thermofisher PV4786
Protocol: (§1) Experimental method: Promega's ADP-Glo lipid kinase assay method (Promega #V9102) was applied in this experiment. Lipid kinase PI3Kα/β/γ/δ catalyzed the generation of ADP from ATP in the presence of the substrate PIP2: 3PS and ATP. The lipid kinase activity was characterized by measuring the ADP content in the reaction, and the half inhibitory concentration IC50 of the compound on inhibiting PI3Kα/β/γ/δ kinase activity was thus obtained.
(§2) The kinase reaction was carried out in a white 384-well plate (Perkin Elmer #6007299). 2 μL of the compound solution of different concentrations diluted with ddH2O containing 1% DMSO was added to each well. 2 μL of ddH2O containing 1% DMSO was added to the positive control well. 2 μL of 0.1-2 nM PI3K kinase solution diluted with 5× kinase buffer (HEPES 250 mM, MgCl2 15 mM, NaCl 250 mM, BSA 0.05%) was added to each well. 2 μL of 5× kinase buffer was added to the negative control well. 4 μL of 50 μM substrate PIP2: 3PS (Promega #V1701) formulated with 10× Dilution buffer and ddH2O was added to all wells. Finally, 2 μL of […] ATP solution diluted with water was added to start the reaction. After the reaction was carried out at room temperature for 90 to 120 minutes, 10 μL of ADP-Glo Reagent (containing 10 mM MgCl2) was added to each well, and reacted at room temperature for 60 minutes to remove excess ATP in the reaction. 20 μL of Kinase Detection Reagent was added to each well, and reacted at room temperature in the dark for 20 minutes. The chemiluminescence value was measured by the BioTek Synergy H1 microplate reader.
(§3) The percentage inhibition data of the compound-treated well was calculated through the positive control well (DMSO control well) and negative control well (no kinase added) on the plate {% inhibition rate=100−[(test compound value−negative control value)]/(positive control value−negative control value)×100}. The IC50 value was calculated by fitting the data of different concentrations and corresponding percentage inhibition rates to a four-parameter nonlinear logic formula with GraphPad prism.

PI3Kδ = biological target: T2, PI3Kδ (Homo sapiens, UniProt O00329); assay: ADP-Glo lipid kinase assay, PI3Kδ kinase activity; format: biochemical; settings: 0.1 nM enzyme, 90 min, 100 μM ATP
T2 construct: purchased Carna 11-103
Protocol: as §1, §2, §3

PI3Kα = biological target: T3, PI3Kα (Homo sapiens, UniProt P42336); assay: ADP-Glo lipid kinase assay, PI3Kα kinase activity; format: biochemical; settings: for IC50: ADP-Glo, 0.1 nM enzyme, 120 min, 50 μM ATP; for Selectivity of PI3Kα vs PI3Kβ: ratio of IC50 PI3Kβ to IC50 PI3Kα; for Selectivity of PI3Kα vs PI3Kγ: ratio of IC50 PI3Kγ to IC50 PI3Kα; for Selectivity of PI3Kα vs PI3Kδ: ratio of IC50 PI3Kδ to IC50 PI3Kα
T3 construct: purchased Promega V1721
Protocol: as §1, §2, §3

PI3Kβ = biological target: T4, PI3Kβ (Homo sapiens, UniProt P42338); assay: ADP-Glo lipid kinase assay, PI3Kβ kinase activity; format: biochemical; settings: 0.4 nM enzyme, 90 min, 100 μM ATP
T4 construct: purchased Carna 11-102
Protocol: as §1, §2, §3

[1] = Pharmacokinetic (PK) assay in mice; format: in vivo; settings: male, Balb/c, mouse, plasma, po, single intragastric 5 mg/kg; for AUC(0-t): read-out: Area under curve AUC0-t; for AUC(0-inf): read-out: Area under curve AUC0-∞; for half-life: read-out: Half-life t1/2(h) (converted); for MRT: read-out: Mean residence time MRT; for Tmax: read-out: Peak time tmax; for Cmax: read-out: Plasma concentration Cmax
Protocol: The pharmacokinetic assay of the preferred compounds of the examples of the present invention in mice was carried out in Balb/c male mice (Shanghai Jiesijie Laboratory Animal Co., LTD). • Administration mode: single intragastric administration. • Administration dose: 5 mg/10 ml/kg (body weight). • Formulation: the compound was dissolved in 0.5% CMC-Na by ultrasound to obtain a clear solution or homogeneous suspension. • Sampling points: 0.5, 1, 2, 4, 6, 8 and 24 hours after administration. • Sample process: • 1) 0.1 mL of blood was taken from the orbit, placed in a K2-EDTA tube, and centrifuged for 5 to 20 minutes at room temperature at 1000 to 3000×g to separate the plasma, which was then stored at −80° C. • 2) 160 uL of acetonitrile was added to 40 uL of plasma sample for precipitation, and then the mixture was centrifuged for 5 to 20 minutes at 500 to 2000×g. • 3) 100 uL of processed supernatant was taken and analyzed by LC/MS/MS assay to determine the concentration of the test compound. • LC-MS/MS assay: • Liquid chromatography condition: Shimadzu LC-20AD pump • Mass spectrometry condition: AB Sciex API 4000 mass spectrometer • Chromatographic column: phenomenex Gemiu 5 μm C18 50×4.6 mm • Mobile phase: solution A was 0.1% aqueous formic acid solution, and solution B was acetonitrile • Flow rate: 0.8 mL/min • Elution time: 0-4 minutes gradient elution • Pharmacokinetics: […]
The main parameters were calculated using WinNonlin 6.1.

T4 sequence (P42338 whole entry): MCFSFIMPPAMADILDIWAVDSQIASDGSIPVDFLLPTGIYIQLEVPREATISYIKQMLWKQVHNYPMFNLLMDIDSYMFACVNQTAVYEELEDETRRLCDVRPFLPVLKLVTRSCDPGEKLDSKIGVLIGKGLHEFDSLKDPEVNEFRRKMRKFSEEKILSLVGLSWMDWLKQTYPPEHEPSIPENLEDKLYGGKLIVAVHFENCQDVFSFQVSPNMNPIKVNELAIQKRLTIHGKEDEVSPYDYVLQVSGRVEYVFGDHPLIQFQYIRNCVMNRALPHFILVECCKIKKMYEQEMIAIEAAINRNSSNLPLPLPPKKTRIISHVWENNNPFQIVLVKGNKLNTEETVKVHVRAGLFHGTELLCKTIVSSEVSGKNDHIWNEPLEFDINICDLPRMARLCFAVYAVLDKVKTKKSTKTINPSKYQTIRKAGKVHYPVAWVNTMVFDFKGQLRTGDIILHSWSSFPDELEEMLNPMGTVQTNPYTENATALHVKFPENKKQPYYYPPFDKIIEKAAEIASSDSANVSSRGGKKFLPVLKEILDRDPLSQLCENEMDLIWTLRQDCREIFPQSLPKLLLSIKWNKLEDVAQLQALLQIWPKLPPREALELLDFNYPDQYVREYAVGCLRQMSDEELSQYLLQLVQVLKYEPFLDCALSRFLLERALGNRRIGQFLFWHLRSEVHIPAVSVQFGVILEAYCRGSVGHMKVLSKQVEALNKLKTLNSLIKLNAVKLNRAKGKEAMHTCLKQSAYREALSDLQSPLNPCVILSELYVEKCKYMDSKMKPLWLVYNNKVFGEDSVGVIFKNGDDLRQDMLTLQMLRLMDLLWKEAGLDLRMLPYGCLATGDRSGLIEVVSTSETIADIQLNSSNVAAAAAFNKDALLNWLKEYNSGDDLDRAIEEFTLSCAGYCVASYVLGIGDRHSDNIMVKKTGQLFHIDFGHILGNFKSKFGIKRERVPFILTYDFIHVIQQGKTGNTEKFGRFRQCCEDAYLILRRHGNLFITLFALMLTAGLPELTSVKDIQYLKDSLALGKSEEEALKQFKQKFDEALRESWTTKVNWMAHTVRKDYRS
T4 sequence (P27986 whole entry partner): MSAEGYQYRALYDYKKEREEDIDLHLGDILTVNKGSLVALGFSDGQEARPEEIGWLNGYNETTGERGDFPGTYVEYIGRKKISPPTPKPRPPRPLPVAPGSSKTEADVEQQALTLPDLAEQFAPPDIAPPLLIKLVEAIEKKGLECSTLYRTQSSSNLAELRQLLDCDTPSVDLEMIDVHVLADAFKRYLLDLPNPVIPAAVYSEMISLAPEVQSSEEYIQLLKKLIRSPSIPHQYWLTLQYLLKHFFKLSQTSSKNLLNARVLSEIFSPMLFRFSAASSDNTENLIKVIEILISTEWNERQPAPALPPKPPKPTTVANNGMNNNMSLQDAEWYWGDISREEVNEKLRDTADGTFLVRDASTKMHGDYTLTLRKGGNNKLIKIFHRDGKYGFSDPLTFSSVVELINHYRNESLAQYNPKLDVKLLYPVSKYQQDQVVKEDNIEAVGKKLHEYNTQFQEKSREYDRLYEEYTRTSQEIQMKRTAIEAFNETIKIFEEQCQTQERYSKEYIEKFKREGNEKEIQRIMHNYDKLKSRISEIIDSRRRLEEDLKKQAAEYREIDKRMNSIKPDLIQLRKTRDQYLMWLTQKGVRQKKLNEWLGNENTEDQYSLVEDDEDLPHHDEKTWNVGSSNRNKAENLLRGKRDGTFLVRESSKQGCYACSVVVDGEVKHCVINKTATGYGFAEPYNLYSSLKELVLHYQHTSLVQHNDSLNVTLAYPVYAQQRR
T1 sequence (P48736 whole entry): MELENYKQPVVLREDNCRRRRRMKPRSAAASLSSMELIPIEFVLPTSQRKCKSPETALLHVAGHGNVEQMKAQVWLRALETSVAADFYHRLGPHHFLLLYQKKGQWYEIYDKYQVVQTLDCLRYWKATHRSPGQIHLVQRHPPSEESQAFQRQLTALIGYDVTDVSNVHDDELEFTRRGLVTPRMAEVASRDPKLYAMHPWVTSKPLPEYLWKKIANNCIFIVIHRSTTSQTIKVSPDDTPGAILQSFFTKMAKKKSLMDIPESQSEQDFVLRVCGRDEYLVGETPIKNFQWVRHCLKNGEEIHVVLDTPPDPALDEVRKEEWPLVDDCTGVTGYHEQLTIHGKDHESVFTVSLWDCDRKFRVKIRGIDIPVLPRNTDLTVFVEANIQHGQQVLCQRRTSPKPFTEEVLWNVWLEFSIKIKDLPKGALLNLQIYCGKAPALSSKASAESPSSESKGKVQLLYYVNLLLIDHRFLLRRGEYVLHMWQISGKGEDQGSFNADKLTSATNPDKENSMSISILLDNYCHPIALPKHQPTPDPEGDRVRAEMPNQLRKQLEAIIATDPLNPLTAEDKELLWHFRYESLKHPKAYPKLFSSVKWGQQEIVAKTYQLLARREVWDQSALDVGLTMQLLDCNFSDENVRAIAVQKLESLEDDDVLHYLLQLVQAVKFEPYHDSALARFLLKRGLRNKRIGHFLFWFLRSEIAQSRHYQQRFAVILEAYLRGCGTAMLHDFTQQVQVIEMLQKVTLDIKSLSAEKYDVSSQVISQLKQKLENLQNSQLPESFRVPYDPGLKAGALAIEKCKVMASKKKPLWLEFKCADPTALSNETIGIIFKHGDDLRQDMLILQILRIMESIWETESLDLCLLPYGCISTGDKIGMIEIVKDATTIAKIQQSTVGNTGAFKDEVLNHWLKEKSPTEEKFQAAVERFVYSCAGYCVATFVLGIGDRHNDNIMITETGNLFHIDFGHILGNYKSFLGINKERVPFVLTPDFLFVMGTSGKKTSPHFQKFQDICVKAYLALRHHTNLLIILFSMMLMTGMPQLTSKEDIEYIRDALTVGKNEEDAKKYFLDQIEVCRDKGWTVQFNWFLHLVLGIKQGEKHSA
T3 sequence (P42336 whole entry): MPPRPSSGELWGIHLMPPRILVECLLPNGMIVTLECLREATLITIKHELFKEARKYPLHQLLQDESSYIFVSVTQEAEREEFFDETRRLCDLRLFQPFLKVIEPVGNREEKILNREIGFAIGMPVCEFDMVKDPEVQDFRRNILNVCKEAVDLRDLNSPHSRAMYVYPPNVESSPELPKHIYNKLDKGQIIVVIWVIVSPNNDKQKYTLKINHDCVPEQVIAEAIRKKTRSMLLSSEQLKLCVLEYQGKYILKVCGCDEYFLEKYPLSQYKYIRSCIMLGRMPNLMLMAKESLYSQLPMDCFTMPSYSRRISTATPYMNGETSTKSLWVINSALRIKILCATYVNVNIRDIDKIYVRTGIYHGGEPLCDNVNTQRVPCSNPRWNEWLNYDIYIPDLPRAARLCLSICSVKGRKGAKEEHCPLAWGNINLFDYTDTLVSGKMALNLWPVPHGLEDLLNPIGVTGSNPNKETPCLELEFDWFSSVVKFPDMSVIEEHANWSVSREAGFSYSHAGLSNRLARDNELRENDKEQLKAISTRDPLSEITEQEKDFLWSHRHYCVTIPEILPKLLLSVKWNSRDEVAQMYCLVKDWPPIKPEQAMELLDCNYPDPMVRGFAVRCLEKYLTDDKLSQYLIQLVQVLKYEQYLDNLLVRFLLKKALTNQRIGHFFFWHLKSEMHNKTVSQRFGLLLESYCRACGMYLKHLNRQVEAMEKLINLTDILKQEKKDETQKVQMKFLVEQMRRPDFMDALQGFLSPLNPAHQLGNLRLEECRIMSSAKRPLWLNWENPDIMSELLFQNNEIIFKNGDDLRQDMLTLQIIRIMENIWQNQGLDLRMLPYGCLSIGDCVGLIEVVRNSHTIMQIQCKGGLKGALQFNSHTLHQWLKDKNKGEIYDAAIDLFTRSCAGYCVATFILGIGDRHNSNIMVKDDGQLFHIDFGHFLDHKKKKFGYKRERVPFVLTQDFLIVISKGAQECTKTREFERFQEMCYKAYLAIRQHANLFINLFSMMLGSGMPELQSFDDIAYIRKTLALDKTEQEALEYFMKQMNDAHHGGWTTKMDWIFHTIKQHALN
T3 sequence (P27986 whole entry partner): as the sequence (P27986 whole entry partner) above
T2 sequence (O00329 whole entry): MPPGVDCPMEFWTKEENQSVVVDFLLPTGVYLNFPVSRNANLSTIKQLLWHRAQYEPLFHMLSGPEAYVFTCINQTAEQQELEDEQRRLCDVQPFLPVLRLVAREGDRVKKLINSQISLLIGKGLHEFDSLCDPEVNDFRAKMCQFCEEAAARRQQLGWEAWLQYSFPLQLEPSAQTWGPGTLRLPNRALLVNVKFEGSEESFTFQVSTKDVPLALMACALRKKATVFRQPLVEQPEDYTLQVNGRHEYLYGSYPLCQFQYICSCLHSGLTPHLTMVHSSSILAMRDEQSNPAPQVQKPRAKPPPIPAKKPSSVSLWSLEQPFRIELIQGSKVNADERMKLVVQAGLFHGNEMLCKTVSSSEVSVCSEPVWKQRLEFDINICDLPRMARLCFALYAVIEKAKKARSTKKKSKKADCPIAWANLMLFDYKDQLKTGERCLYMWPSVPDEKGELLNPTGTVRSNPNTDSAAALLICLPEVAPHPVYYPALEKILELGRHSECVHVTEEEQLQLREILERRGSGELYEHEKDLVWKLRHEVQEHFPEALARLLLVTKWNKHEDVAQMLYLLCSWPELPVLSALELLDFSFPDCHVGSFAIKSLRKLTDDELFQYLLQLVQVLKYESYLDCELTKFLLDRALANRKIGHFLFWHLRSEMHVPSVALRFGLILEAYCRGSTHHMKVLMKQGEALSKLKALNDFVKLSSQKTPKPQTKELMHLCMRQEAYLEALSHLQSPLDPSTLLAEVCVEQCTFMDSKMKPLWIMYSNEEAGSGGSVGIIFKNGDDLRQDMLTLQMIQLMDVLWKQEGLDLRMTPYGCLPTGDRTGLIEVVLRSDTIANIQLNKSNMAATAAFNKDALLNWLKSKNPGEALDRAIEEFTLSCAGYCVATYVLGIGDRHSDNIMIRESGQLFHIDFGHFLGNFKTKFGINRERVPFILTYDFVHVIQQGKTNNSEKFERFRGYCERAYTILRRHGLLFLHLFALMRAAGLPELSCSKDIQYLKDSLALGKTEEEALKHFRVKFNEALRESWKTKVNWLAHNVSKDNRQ
T2 sequence (P27986 whole entry partner): as the sequence (P27986 whole entry partner) above

CC(Nc1ccc2c(c1)OCCn1cc(N3C(=O)OC(C)[C@H]3C(F)F)nc1-2)C(N)=O (stereo in doubt) [Example 55, (R)-2-((2-((4S,5R)-4-(difluoromethyl)-5-methyl-2-oxooxazolidin-3-yl)-5,6-dihydrobenzo[f]imidazo[1,2-d][1,4]oxazepin-9-yl)amino)propanamide]
IC50 (PI3Kγ): 363 nM | IC50 (PI3Kδ): 213 nM | IC50 (PI3Kα): 1.7 nM | IC50 (PI3Kβ): 1870 nM

C[C@H](Nc1ccc2c(c1)OCCn1c-2nc(N2C(=O)OC[C@H]2C(F)F)c1F)C(N)=O [Example 10, (S)-2-((2-((S)-4-(difluoromethyl)-2-oxooxazolidin-3-yl)-3-fluoro-5,6-dihydrobenzo[f]imidazo[1,2-d][1,4]oxazepin-9-yl)amino)propanamide]
IC50 (PI3Kγ): 1790 nM | IC50 (PI3Kδ): 1400 nM | IC50 (PI3Kα): 7.9 nM | Selectivity of PI3Kα vs PI3Kβ (PI3Kα): >1266 | IC50 (PI3Kβ): > 10000 nM

CC(C)[C@H](Nc1ccc2c(c1)OCCn1cc(N3C(=O)OC[C@H]3C(F)F)nc1-2)C(N)=O [Example 38, (S)-2-((2-((S)-4-(difluoromethyl)-2-oxooxazolidin-3-yl)-5,6-dihydrobenzo[f]imidazo[1,2-d][1,4]oxazepin-9-yl)amino)-3-methylbutanamide]
IC50 (PI3Kγ): 447 nM | IC50 (PI3Kδ): 410 nM | IC50 (PI3Kα): 4 nM | IC50 (PI3Kβ): 1430 nM

C[C@@H](C(N)=O)N(C)c1ccc2c(c1)OCCn1cc(N3C(=O)OC[C@H]3C(F)F)nc1-2 [Example 43, (S)-2-((2-((S)-4-(difluoromethyl)-2-oxooxazolidin-3-yl)-5,6-dihydrobenzo[f]imidazo[1,2-d][1,4]oxazepin-9-yl)(methyl)amino)propanamide]
IC50 (PI3Kγ): 557 nM | IC50 (PI3Kδ): 25 nM | IC50 (PI3Kα): 0.86 nM | AUC(0-t) [1]: 3440 ng·h/mL | AUC(0-inf) [1]: 3500 ng·h/mL | half-life [1]: 1 h | MRT [1]: 1.8 h | Tmax [1]: 0.5 h | Cmax [1]: 2060 ng/mL | IC50 (PI3Kβ): 283 nM

C[C@H](Nc1ccc2c(c1)OCCn1cc(N3C(=O)N(C)C[C@H]3C(F)F)nc1-2)C(N)=O [Example 53, (S)-2-((2-((S)-5-(difluoromethyl)-3-methyl-2-oxoimidazolidin-1-yl)-5,6-dihydrobenzo[f]imidazo[1,2-d][1,4]oxazepin-9-yl)amino)propanamide]
IC50 (PI3Kγ): 402 nM | IC50 (PI3Kδ): 373 nM | IC50 (PI3Kα): 5 nM | Selectivity of PI3Kα vs PI3Kγ (PI3Kα): 80 | AUC(0-t) [1]: 1280 ng·h/mL | AUC(0-inf) [1]: 1290 ng·h/mL | half-life [1]: 0.8 h | MRT [1]: 1.2 h | Tmax [1]: 0.5 h | Cmax [1]: 1090 ng/mL | IC50 (PI3Kβ): 6190 nM

C[C@H](Nc1ccc2c(c1)OCCn1cc(N3CC(F)(F)COC3=O)nc1-2)C(N)=O [Example 66, (S)-2-((2-(5,5-difluoro-2-oxo-1,3-oxazinan-3-yl)-5,6-dihydrobenzo[f]imidazo[1,2-d][1,4]oxazepin-9-yl)amino)propanamide]
IC50 (PI3Kγ): 2080 nM | IC50 (PI3Kδ): 653 nM | IC50 (PI3Kα): 9.3 nM | Selectivity of PI3Kα vs PI3Kβ (PI3Kα): 492 | Selectivity of PI3Kα vs PI3Kγ (PI3Kα): 223 | Selectivity of PI3Kα vs PI3Kδ (PI3Kα): 70 | IC50 (PI3Kβ): 4570 nM

C[C@H](Nc1cc(F)c2c(c1)OCCn1cc(N3C(=O)OC[C@H]3C(F)F)nc1-2)C(N)=O [Example 78, (S)-2-((2-((S)-4-(difluoromethyl)-2-oxooxazolidin-3-yl)-11-fluoro-5,6-dihydrobenzo[f]imidazo[1,2-d][1,4]oxazepin-9-yl)amino)propanamide]
IC50 (PI3Kγ): 510 nM | IC50 (PI3Kδ): 459 nM | IC50 (PI3Kα): 5.2 nM | IC50 (PI3Kβ): 2790 nM

COC[C@H](Nc1ccc2c(c1)OCCn1cc(N3C(=O)OC[C@H]3C(F)F)nc1-2)C(N)=O [Example 90, (S)-2-((2-((S)-4-(difluoromethyl)-2-oxooxazolidin-3-yl)-5,6-dihydrobenzo[f]imidazo[1,2-d][1,4]oxazepin-9-yl)amino)-3-methoxypropanamide]
AUC(0-t) [1]: 2070 ng·h/mL | AUC(0-inf) [1]: 2090 ng·h/mL | half-life [1]: 1 h | MRT [1]: 1.6 h | Tmax [1]: 0.5 h | Cmax [1]: 1290 ng/mL

C[C@H](Nc1ccc2c(c1)OCCn1cc(N3C(=O)CC[C@H]3C(F)F)nc1-2)C(N)=O [Example 97, (S)-2-((2-((S)-2-(difluoromethyl)-5-oxopyrrolidin-1-yl)-5,6-dihydrobenzo[f]imidazo[1,2-d][1,4]oxazepin-9-yl)amino)propanamide]
IC50 (PI3Kγ): 510 nM | IC50 (PI3Kδ): 190 nM | IC50 (PI3Kα): 2.1 nM | Selectivity of PI3Kα vs PI3Kδ (PI3Kα): 90 | IC50 (PI3Kβ): 1650 nM

COC[C@H](Nc1ccc2c(c1F)OCCn1cc(N3C(=O)SC[C@H]3C(F)F)nc1-2)C(N)=O [Example 109, (S)-2-((2-((R)-4-(difluoromethyl)-2-oxothiazolidin-3-yl)-8-fluoro-5,6-dihydrobenzo[f]imidazo[1,2-d][1,4]oxazepin-9-yl)amino)-3-methoxypropanamide]
IC50 (PI3Kγ): 1150 nM | IC50 (PI3Kδ): 348 nM | IC50 (PI3Kα): 6.8 nM | IC50 (PI3Kβ): 1070 nM

C[C@@H](C(N)=O)N(C)c1ccc2c(c1)OCCn1cc(N3C(=O)SC[C@H]3C(F)F)nc1-2 [Example 112, (S)-2-((2-((R)-4-(difluoromethyl)-2-oxothiazolidin-3-yl)-5,6-dihydrobenzo[f]imidazo[1,2-d][1,4]oxazepin-9-yl)(methyl)amino)propanamide]
IC50 (PI3Kγ): 478 nM | IC50 (PI3Kδ): 69 nM | IC50 (PI3Kα): 2.2 nM | IC50 (PI3Kβ): 523 nM

C[C@H](Nc1ccc2c(c1)OCCn1cc(N3C(=O)CC[C@H]3CC#N)nc1-2)C(N)=O [Example 117, (S)-2-((2-((S)-2-(cyanomethyl)-5-oxopyrrolidin-1-yl)-5,6-dihydrobenzo[f]imidazo[1,2-d][1,4]oxazepin-9-yl)amino)propanamide]
IC50 (PI3Kγ): 505 nM | IC50 (PI3Kδ): 280 nM | IC50 (PI3Kα): 2.5 nM | Selectivity of PI3Kα vs PI3Kβ (PI3Kα): 779 | Selectivity of PI3Kα vs PI3Kγ (PI3Kα): 202 | Selectivity of PI3Kα vs PI3Kδ (PI3Kα): 112 | IC50 (PI3Kβ): 1950 nM

COC[C@H](Nc1ccc2c(c1)OCCn1cc(N3C(=O)OC[C@H]3CC#N)nc1-2)C(N)=O [Example 120, (S)-2-((2-((R)-4-(cyanomethyl)-2-oxooxazolidin-3-yl)-5,6-dihydrobenzo[f]imidazo[1,2-d][1,4]oxazepin-9-yl)amino)-3-methoxypropanamide]
IC50 (PI3Kγ): 530 nM | IC50 (PI3Kδ): 200 nM | IC50 (PI3Kα): 4.7 nM | Selectivity of PI3Kα vs PI3Kβ (PI3Kα): 210 | Selectivity of PI3Kα vs PI3Kγ (PI3Kα): 113 | Selectivity of PI3Kα vs PI3Kδ (PI3Kα): 43 | IC50 (PI3Kβ): 988 nM

— US20210221822A1, “TRICYCLIC DERIVATIVES INHIBITOR, PREPARATION METHOD, AND APPLICATIONS THEREOF” (Jiangsu Hansoh Pharmaceutical Group Co., Ltd., priority 2018, published 2021)
